Patent publication US20120046232A1, “COMPOSITIONS AND METHODS FOR REDUCING RELAPSE OF ADDICTIVE BEHAVIOR” (Medical University of South Carolina, priority 2010, published 2012)
“Also recorded” adds a separate entry of the source. Where two headings read alike, the source gives them in different places.

Tests used:
mGluR2/3 [1] = conditions: intra-accumbens infusion, microdialysis probes; cited from earlier work
mGluR2/3 [2] = conditions: cited from earlier work; for PFC glutamate levels: infusion/perfusion into PFC, microdialysis
mGluR2/3 receptors [3] = conditions: perfusion into the accumbens, in vivo microdialysis; cited from earlier work
mGluR5 [4] = molecular target: T1, mGluR5 (Rattus norvegicus, UniProt P31424); experiment: Cue-induced cocaine relapse (active lever presses), CHPG microinjected into nucleus accumbens (FIG. 1); assay type: in vivo, rats
T1 construct: from tissue; host or cells: brain of living Sprague-Dawley rats (nucleus accumbens for CHPG microinjection; systemic dosing for MTEP, MPEP, Fenobam)
Procedure: Relapse was induced by presenting the animal with a tone and light compound cue that was previously associated with cocaine delivery during the self-administration training. […] Data were analyzed using one-way ANOVA (2,14)=5.20, p=0.021; *p<0.05 compared to extinction, +p<0.05 comparing cue+aCSF (artificial cerebrospinal fluid control injection).
(§1) All experiments were conducted in accordance with the US National Institutes of Health guidelines for the care and use of laboratory animals, and all procedures were approved by the Institutional Animal Care and Use Committee at the Medical University of South Carolina. One week after arrival, male Sprague-Dawley rats (250 g) were anesthetized with ketamine HCl (87.5 mg kg^−1 Ketaset, Fort Dodge Animal Health) and xylazine (5 mg kg^−1 Rompum, Bayer) and implanted with intravenous catheters. The catheters were flushed daily with cefazolin (0.2 ml of a 0.1 g/ml solution) and heparin (0.2 ml of 100 units) to prevent infection and maintain catheter patency. Rats were allowed to recover for a week before behavioral training (Baker et al. Nat. Neurosci 6:743-749, 2003).
Rats were trained to self-administer cocaine in a standard operant chamber with two retractable levers. The self-administration regimen consisted of 10d of self-administration at >10 infusions per session. […]

mGluR5 [5] = molecular target: T1, mGluR5; experiment: Cocaine+cue induced reinstatement, low-dose mGluR5 antagonists in rats given N-acetylcysteine after extinction (FIG. 6); assay type: in vivo; conditions: MPEP 1.0 mg/kg/ip or Fenobam 1.75 mg/kg/ip
Procedure: Top, treatment protocol for cocaine, N-acetylcysteine, and mGluR5 antagonists.
Rats were injected with low doses of MPEP (1.0 mg/kg/ip) or Fenobam (1.75 mg/kg/ip) (FIG. 6), both systemically active and selective mGluR5 receptor antagonists (Carroll, 2008; Montana et al., 2009).
as §1
Rats were trained to self-administer cocaine in a standard operant chamber with two retractable levers. The self-administration regimen consisted of 10d of self-administration at >10 infusions per session. […] Cocaine self-administering rats were often paired with yoked saline controls. Extinction procedures began 24 h after the rat met the acquisition criterion and lasted for at least 3 weeks. Lever presses were inconsequential throughout the extinction training

mGluR2/3 receptors [6] = conditions: bath application, accumbens slices; cited from earlier work
mGluR5 [7] = molecular target: T1, mGluR5; experiment: Cocaine relapse, chronic NAC or saline followed by acute MPEP (FIG. 3); assay type: in vivo
Procedure: Data were analyzed by a two-way ANOVA interaction F(1,20)=7.17, p=0.015; *p<0.05 comparing saline to MPEP.
Towards this end, the effects of chronic NAC followed by acute administration of mGluR5 modulator (MPEP) on relapse in the rat model were examined.
as §1
Rats were trained to self-administer cocaine in a standard operant chamber with two retractable levers. The self-administration regimen consisted of 10d of self-administration at >10 infusions per session. […] Cocaine self-administering rats were often paired with yoked saline controls. […]

[8] = humans; cited from earlier work
[9] = cited from earlier work
[10] = cited from earlier work; remark: listed apart in the source
[11] = cited from earlier work; remark: listed apart in the source
XC transporter = conditions: cited from earlier work
system XC− = conditions: cystine added to brain slices; cited from earlier work
[12] = rats given N-acetylcysteine after extinction training

T1 sequence (P31424 21-1203): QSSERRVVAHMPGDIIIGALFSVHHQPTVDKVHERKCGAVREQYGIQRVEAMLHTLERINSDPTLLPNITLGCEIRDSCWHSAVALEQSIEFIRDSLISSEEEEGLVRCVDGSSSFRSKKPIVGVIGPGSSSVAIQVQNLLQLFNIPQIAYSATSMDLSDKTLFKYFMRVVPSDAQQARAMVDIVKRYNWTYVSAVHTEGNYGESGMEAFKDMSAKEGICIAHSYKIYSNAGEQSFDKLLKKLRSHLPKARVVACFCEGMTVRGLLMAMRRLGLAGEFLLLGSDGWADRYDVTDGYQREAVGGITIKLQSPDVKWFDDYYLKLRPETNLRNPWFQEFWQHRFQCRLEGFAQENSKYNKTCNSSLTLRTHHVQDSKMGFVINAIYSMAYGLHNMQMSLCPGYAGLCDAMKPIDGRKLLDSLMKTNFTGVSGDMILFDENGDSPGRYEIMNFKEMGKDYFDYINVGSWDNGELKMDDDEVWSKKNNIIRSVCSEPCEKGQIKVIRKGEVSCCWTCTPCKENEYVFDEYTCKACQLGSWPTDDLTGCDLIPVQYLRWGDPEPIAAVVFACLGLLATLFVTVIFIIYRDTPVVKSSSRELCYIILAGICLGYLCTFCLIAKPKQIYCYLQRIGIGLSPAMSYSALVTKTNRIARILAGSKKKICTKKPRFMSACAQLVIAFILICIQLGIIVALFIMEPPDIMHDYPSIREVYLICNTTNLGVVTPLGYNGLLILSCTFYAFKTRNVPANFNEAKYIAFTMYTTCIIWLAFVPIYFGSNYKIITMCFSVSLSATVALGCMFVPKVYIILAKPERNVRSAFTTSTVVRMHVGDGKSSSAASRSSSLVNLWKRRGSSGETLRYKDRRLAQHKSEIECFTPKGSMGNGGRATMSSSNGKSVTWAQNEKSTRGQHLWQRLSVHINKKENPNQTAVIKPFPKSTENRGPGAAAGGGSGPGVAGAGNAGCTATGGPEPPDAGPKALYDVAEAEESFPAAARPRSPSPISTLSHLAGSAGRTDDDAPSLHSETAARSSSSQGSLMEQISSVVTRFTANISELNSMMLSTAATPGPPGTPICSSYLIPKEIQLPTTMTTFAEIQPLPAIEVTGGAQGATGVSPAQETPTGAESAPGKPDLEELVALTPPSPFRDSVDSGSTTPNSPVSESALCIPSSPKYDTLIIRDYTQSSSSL

For `O=C(O)CCC(CP(=O)(O)O)C(=O)O` (centres unmarked) [2-PMPA, 2-(phosphonomethyl)-pentanedioic acid], the basal dopamine levels (mGluR2/3 [1]) is listed as “reduce”.

In the case of `N[C@@]1(C(=O)O)CN[C@@H](C(=O)O)C1` [APDC, (2R,4R)-4-aminopyrrolidine-2,4-dycarboxylate], the PFC glutamate levels (mGluR2/3 [2]) is listed as “without effect” and the “extracellular glutamate in the accumbens” value (mGluR2/3 receptors [3]) is listed as “reduced extracellular glutamate levels”.

In the case of `NC(C(=O)O)c1cc(O)ccc1Cl` (centres unmarked) [CHPG], the “relapse induced by agonist alone” value (mGluR5 [4]; CHPG alone, without cue) is reported as “did not induce relapse” and the “cue-induced relapse (active lever presses)” value (mGluR5 [4]; CHPG into nucleus accumbens plus tone and light cue, rats withdrawn 3-5 weeks after cocaine self-administration) is reported as “dose-dependant increase”.

In the case of `N[C@H](C(=O)O)C1[C@@H](C(=O)O)[C@@H]1C(=O)O` (stereo partly drawn) [DCG-4, (2S,1′R,2′R,3′R)-2-(2,3-dicarboxycyclopropyl)glycine], the basal dopamine levels (mGluR2/3 [1]) is given as “reduce”.

For `CN1CC(=O)N=C1NC(=O)Nc1cccc(Cl)c1` [Fenobam, 1-(3-chlorophenyl)-3-(3-methyl-5-oxo-4H-imidazol-2-yl)urea], the “relapse to cocaine seeking (lever pressing)” value (“relapse to cocaine seeking” for short) (mGluR5 [5]; [12]) was “significantly reduced lever pressing; also recorded: inhibit relapse” and the “relapse to cocaine seeking” value (mGluR5 [5]; vehicle treated rats) was “not”.

For `N[C@H](C(=O)O)[C@H]1C[C@@H]1C(=O)O` [L-CCG1, (2S,1′S,2′S)-2-(2′-carboxycyclopropyl)glycine], the mEPSC amplitude (mGluR2/3 receptors [6]) is given as “without affecting”, the mEPSC frequency (mGluR2/3 receptors [6]) is given as “reduced” and the paired pulse ratios (mGluR2/3 receptors [6]) is given as “increased”.

In the case of `N[C@](CC1c2ccccc2Oc2ccccc21)(C(=O)O)[C@H]1C[C@@H]1C(=O)O` [LY341495], the “glutamate levels in subcortical regions (nucleus accumbens and VTA)” value (mGluR2/3 [2]; infusion in the prefrontal cortex) is given as “increased”, the PFC glutamate levels (mGluR2/3 [2]) is given as “increase” and the “extracellular glutamate in the accumbens” value (mGluR2/3 receptors [3]) is given as “increased glutamate release”.

For `N[C@@]1(C(=O)O)CO[C@H]2[C@H](C(=O)O)[C@H]21` [LY379268], the basal dopamine levels (mGluR2/3 [1]) is given as “reduce”.

For `N[C@]1(C(=O)O)[C@H]2[C@@H](C[C@H]1OCc1ccc(Cl)c(Cl)c1)[C@]2(F)C(=O)O` [MGS0039], the basal dopamine levels (mGluR2/3 [1]) is given as “increase”.

With `Cc1cccc(C#Cc2ccccc2)n1` [MPEP, 2-methyl-6-(phenylethynyl)pyridine] the “relapse to cocaine seeking” value (mGluR5 [5]; [12]) was “significantly reduced lever pressing; also recorded: inhibit relapse”, the “relapse to cocaine seeking” value (mGluR5 [5]; vehicle treated rats) was “not” and the “lever pressing (measure of relapse)” value (mGluR5 [7]; acute MPEP in animals treated chronically with NAC) was “reduced cocaine relapse; also recorded: reduced lever pressing”. For the same compound, the “lever pressing (measure of relapse)” value (mGluR5 [7]; acute MPEP in animals treated chronically with saline) was “without effect and not”.

For `CC(N)(C(=O)O)c1ccc(P(=O)(O)O)cc1` (stereo not drawn) [MPPG, α-methyl-4-phosphonophenylglycine], the basal dopamine levels (mGluR2/3 [1]) is given as “increase”.

In the case of `CC(=O)N[C@@H](CS)C(=O)O` [NAC, N-acetylcysteine], the “cocaine, nicotine and marijuana use” value [8] is given as “reduces but does not abolish”, the compulsive gambling behavior [8] is given as “reduce” and the “desire for cocaine use” value [8] is given as “reduce”. The marijuana abuse [8] was “reduce”, the “number of cigarettes smoked” value [8] was “reduce” and the solubility [9] was “more soluble”. For the same compound, the peak concentration ([10]; 600 mg i.v. dose) was 300 µM, the “peak NAC plasma concentration” value ([10]; humans, 400 mg oral dose) was 10 to 17 µM and the “peak NAC plasma concentration” value ([10]; humans, 600 mg oral dose) was 16 µM. The “time of peak NAC plasma concentration after administration” value ([10]; humans, 400 or 600 mg oral dose) was “one”, the half-life ([10]; oral NAC) was 6.25 h and the oral bioavailability ([10]; oral NAC) was 4-10%. For the same compound, the “time to peak plasma concentration following ingestion” value ([10]; oral NAC) was 1 to 2 h, the side effects ([11]; clinical use) was “minimal and mostly limited to gastrointestinal discomfort; also recorded: without any noticeable side effects” and the toxicity ([11]; compared with cystine and cysteine) was “less toxic”. For the same compound, the extinction responding (XC transporter; NAC for 2 weeks during extinction from heroin self-administration) was “reduces extinction responding”, the reinstatement (XC transporter; NAC for 2 weeks during extinction from heroin self-administration, up to one month after last injection) was “prevents reinstatement” and the extinction responding (XC transporter; NAC treatment during self-administration, after chronic cocaine) was “reduces extinction responding”. For the same compound, the “extracellular glutamate levels in the accumbens” value (XC transporter; after chronic cocaine) was “normalizes”, the “relapse to drug seeking” value (XC transporter; animal models of drug addiction) was “inhibit relapse to cocaine and heroin; also recorded: prevents relapse to drug seeking” and the protection against relapse (XC transporter; chronic NAC during cocaine self-administration or heroin extinction, several weeks after last NAC injection) was “enduring protection against relapse”.

In the case of `N[C@@H](CSSC[C@H](N)C(=O)O)C(=O)O` [cystine], the solubility [9] is listed as “very limited solubility” and the extracellular glutamate levels (system XC−) is listed as “increases”.
